Test results taken from ChEMBL document CHEMBL5291721, “A preclinical secondary pharmacology resource illuminates target-adverse drug reaction associations of marketed drugs” (Nat Commun, 2023).
*1 amine or outer side, *2 acyl side, *3 side chain or, on linkers, in order; H or OH if unused. Where a SMILES comes first, the peptide text is derived from it. Bridges are numbered along the chain shown (N, C = ends). [ ]: non-standard residue; d: D form. The star is where a group is joined. hTyr(3S-OH,4S-OH,3'-OSO3H) = N[C@H](C(=O)O)[C@H](O)[C@@H](O)c1ccc(O)c(OS(=O)(=O)O)c1; Orn(4R-OH,5R-OH) = O=C([C@H](C[C@@H](O)[C@@H](O)N[*:3])N[*:1])[*:2]; Pro(3S-OH,4S-Me) = C[C@H]1CN[C@H](C(=O)O)[C@H]1O; X1 = CCCCCOc1ccc(-c2cc(-c3ccc(C(=O)*)cc3)no2)cc1; Gln(3R-OH) = NC(=O)C[C@@H](O)[C@H](N)C(=O)O; Hyp = O=C(O)[C@@H]1C[C@@H](O)CN1

Experiments:
[1] = target: Kappa-type opioid receptor (Homo sapiens, UniProt P41145)
[2] = target: Melanocortin receptor 3 (Homo sapiens, UniProt P41968)
[3] = target: Voltage-dependent L-type calcium channel subunit alpha-1C (Rattus norvegicus, UniProt P22002); assay type: functional
[4] = target: T1, Alpha-1A adrenergic receptor (Homo sapiens, UniProt P35348); assay type: functional, cell-based
T1 sequence (P35348 whole entry): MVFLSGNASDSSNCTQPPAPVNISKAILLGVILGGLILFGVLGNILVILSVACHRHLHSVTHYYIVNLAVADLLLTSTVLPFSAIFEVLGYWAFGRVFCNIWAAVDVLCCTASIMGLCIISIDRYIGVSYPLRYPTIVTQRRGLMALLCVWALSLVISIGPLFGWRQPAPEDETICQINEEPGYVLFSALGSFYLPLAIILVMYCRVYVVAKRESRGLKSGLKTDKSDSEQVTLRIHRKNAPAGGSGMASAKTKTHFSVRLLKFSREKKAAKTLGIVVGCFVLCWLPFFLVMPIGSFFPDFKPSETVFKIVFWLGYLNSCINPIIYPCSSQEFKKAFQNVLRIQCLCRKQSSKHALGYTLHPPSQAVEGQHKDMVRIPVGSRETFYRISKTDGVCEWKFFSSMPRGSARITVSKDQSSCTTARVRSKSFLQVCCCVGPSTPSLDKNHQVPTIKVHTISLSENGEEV

[5] = target: T2, 5-hydroxytryptamine receptor 1A (Homo sapiens, UniProt P08908); assay type: functional, cell-based
T2 sequence (P08908 whole entry): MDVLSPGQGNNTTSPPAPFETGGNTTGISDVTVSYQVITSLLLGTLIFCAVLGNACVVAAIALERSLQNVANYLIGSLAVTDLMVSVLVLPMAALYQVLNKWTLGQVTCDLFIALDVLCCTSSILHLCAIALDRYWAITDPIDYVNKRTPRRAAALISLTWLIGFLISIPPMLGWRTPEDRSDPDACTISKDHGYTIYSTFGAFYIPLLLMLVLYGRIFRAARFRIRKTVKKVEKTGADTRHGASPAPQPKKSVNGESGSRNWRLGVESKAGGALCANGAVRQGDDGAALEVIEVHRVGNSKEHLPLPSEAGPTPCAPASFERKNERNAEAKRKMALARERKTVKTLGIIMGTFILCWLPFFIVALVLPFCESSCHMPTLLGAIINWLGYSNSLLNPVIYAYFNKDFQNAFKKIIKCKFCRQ

[6] = target: T2, 5-hydroxytryptamine receptor 1A; assay type: functional, cell-based; remark: listed apart in the source
[7] = target: Histamine H2 receptor (Homo sapiens, UniProt P25021); assay type: functional, cell-based
[8] = target: 5-hydroxytryptamine receptor 2B (Homo sapiens, UniProt P41595); assay type: functional, cell-based
[9] = target: T3, 5-hydroxytryptamine receptor 2C (Homo sapiens, UniProt P28335)
T3 sequence (P28335 whole entry): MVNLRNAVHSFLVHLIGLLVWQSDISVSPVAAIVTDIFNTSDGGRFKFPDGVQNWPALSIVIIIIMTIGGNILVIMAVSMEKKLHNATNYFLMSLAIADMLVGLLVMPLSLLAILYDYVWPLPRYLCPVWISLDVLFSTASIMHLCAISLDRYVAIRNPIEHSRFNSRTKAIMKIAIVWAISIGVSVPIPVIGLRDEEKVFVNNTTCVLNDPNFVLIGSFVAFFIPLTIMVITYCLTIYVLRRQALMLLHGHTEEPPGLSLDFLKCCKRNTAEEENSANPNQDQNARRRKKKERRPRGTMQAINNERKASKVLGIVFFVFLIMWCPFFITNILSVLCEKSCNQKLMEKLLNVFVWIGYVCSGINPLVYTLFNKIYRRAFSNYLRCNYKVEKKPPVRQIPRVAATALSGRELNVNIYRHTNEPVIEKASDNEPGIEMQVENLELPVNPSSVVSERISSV

[10] = target: Sodium-dependent serotonin transporter (Homo sapiens, UniProt P31645)
[11] = target: Sodium-dependent noradrenaline transporter (Homo sapiens, UniProt P23975)
[12] = target: cGMP-inhibited 3',5'-cyclic phosphodiesterase 3A (Homo sapiens, UniProt Q14432); assay type: functional
[13] = target: T4, Muscarinic acetylcholine receptor M1 (Homo sapiens, UniProt P11229); assay type: functional
T4 sequence (P11229 whole entry): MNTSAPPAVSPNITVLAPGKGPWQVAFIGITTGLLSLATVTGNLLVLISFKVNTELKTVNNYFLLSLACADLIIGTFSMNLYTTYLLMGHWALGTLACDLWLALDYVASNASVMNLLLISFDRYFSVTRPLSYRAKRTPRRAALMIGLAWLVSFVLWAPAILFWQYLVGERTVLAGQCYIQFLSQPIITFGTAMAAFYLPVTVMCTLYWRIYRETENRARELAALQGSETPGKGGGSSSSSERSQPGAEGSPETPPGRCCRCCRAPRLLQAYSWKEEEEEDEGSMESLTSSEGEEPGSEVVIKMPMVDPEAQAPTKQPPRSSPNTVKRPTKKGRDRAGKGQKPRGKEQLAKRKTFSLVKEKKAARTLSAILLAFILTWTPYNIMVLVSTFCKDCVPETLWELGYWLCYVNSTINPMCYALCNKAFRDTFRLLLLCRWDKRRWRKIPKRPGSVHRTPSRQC

[14] = target: T5, Gastrin/cholecystokinin type B receptor (Homo sapiens, UniProt P32239)
T5 sequence (P32239 whole entry): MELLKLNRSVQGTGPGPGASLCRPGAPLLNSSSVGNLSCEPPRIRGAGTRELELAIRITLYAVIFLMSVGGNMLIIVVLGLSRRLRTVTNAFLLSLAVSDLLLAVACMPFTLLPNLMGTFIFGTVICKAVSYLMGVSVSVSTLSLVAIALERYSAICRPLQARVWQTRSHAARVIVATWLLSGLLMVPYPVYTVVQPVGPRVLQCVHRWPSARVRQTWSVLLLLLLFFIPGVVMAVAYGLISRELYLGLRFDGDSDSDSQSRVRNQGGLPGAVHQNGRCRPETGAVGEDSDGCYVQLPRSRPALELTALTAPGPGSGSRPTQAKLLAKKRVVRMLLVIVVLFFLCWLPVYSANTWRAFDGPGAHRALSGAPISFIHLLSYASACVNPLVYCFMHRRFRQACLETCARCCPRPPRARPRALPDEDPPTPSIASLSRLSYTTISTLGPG

[15] = target: Cannabinoid receptor 1 (Homo sapiens, UniProt P21554); assay type: functional, cell-based
Also: assay procedure not described here.

Sodium-dependent serotonin transporter, sequence (P31645 whole entry): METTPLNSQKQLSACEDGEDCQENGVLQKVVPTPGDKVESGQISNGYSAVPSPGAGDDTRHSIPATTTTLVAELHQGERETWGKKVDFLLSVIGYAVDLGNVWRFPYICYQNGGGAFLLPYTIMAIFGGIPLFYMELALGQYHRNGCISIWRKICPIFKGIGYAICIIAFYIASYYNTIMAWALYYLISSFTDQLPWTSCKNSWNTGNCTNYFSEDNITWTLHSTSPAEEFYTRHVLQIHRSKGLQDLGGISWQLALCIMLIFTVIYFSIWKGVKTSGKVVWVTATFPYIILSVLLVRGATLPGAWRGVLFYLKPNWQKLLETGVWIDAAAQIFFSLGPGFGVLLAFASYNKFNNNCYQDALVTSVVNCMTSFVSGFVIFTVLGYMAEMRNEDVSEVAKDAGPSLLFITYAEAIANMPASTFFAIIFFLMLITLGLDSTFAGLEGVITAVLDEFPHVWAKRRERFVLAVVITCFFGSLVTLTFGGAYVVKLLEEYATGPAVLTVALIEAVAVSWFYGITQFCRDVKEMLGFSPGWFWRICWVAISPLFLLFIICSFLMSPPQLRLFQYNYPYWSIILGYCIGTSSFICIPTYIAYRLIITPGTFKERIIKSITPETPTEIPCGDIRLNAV
cGMP-inhibited 3',5'-cyclic phosphodiesterase 3A, sequence (Q14432 whole entry): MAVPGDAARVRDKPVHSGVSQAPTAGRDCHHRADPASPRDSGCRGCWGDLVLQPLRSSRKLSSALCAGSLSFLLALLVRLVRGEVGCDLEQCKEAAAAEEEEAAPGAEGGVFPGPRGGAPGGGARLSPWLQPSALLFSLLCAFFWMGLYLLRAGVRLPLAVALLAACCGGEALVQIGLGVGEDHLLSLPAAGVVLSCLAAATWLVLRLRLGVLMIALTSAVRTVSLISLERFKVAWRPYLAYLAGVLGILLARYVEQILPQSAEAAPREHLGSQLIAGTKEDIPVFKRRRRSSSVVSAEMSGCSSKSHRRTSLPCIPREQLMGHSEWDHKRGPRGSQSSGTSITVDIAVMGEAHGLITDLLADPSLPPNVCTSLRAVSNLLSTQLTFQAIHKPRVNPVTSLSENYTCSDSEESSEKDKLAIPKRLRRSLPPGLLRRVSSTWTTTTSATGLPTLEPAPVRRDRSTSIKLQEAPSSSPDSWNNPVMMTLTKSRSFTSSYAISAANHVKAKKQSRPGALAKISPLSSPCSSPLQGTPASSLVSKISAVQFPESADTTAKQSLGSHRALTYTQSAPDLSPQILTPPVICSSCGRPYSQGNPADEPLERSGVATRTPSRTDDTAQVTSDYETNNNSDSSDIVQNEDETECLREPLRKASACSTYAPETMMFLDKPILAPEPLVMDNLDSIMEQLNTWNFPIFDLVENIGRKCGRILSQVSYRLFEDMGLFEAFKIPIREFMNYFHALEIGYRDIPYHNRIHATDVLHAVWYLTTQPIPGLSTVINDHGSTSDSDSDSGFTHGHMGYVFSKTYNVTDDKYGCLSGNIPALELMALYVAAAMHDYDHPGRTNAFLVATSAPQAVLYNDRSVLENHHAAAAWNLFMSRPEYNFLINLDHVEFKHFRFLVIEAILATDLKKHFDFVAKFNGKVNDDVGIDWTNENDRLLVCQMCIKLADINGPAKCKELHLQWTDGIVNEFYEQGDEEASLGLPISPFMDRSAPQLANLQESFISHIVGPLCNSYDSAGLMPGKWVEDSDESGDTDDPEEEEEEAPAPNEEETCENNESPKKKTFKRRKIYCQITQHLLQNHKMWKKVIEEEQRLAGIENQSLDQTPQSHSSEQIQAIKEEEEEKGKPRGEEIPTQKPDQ
5-hydroxytryptamine receptor 2B, sequence (P41595 whole entry): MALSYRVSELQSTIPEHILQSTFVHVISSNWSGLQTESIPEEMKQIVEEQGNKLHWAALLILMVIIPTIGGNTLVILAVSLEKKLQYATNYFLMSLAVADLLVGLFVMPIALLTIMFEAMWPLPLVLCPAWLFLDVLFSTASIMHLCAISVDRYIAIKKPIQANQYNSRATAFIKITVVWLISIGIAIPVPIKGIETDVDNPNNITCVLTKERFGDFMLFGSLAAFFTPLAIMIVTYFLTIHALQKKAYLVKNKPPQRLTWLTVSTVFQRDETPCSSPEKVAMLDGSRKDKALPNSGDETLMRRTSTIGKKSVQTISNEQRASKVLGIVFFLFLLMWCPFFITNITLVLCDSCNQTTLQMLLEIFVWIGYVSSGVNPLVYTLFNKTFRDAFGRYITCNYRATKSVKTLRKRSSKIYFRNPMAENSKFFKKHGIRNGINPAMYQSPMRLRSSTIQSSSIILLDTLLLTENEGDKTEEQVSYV
Sodium-dependent noradrenaline transporter, sequence (P23975 whole entry): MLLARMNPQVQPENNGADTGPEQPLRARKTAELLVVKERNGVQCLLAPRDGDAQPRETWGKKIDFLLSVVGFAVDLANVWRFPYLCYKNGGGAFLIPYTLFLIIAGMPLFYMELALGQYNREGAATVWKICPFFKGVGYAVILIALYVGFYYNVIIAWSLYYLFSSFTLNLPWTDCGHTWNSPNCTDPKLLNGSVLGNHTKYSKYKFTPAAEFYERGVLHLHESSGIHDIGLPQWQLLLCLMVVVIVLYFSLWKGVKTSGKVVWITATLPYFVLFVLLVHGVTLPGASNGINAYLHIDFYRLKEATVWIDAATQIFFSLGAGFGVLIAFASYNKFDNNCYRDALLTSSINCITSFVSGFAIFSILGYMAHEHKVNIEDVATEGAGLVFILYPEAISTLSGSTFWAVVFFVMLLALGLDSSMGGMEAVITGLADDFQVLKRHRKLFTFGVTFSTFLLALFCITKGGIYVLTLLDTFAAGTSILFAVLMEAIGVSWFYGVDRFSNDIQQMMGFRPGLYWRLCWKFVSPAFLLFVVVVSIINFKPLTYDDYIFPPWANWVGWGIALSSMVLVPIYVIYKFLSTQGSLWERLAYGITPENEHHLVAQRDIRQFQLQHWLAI
Histamine H2 receptor, sequence (P25021 whole entry): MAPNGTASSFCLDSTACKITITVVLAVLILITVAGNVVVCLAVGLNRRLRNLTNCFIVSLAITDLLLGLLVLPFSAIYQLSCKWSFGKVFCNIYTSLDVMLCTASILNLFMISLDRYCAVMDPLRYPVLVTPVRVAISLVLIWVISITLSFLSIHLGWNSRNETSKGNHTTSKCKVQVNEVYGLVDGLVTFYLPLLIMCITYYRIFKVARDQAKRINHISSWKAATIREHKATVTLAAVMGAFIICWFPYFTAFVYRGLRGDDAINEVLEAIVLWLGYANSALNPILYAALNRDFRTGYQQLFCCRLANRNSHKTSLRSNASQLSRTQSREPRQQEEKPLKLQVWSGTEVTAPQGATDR
Kappa-type opioid receptor, sequence (P41145 whole entry): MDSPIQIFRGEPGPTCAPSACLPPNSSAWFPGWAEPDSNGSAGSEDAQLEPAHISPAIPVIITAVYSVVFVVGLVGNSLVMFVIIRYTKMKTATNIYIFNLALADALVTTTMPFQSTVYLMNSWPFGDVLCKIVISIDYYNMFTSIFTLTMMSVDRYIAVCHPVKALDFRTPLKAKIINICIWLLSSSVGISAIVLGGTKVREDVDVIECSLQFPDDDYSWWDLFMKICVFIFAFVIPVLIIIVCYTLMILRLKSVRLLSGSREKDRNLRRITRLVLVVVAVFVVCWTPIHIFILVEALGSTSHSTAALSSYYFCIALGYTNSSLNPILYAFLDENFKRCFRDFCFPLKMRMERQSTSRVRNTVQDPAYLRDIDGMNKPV
Melanocortin receptor 3, sequence (P41968 whole entry): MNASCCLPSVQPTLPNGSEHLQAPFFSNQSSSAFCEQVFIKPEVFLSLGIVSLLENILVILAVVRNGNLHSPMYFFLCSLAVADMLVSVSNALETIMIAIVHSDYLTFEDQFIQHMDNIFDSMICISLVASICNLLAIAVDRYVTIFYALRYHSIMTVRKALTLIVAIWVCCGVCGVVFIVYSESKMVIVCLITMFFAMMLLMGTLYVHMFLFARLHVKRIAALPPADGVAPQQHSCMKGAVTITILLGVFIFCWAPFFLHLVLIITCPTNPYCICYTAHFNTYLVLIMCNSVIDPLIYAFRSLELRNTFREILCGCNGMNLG
Cannabinoid receptor 1, sequence (P21554 whole entry): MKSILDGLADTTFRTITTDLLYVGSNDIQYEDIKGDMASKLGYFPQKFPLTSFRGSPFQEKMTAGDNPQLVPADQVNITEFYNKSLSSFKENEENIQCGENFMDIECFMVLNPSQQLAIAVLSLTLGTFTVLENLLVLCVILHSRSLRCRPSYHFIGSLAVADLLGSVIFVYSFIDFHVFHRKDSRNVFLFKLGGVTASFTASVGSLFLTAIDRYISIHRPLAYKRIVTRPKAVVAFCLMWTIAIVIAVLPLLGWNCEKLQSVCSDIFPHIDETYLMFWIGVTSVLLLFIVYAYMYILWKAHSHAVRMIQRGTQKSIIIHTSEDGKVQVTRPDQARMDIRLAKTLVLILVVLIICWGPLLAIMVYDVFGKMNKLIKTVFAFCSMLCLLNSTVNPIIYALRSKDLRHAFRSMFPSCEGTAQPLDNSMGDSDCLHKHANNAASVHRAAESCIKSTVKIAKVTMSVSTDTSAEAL

## CC(=O)/N=c1/sc(S(N)(=O)=O)nn1C [METHAZOLAMIDE]
[1]
  AC50: > 10 µM
[2]
  AC50: > 10 µM
[3]
  AC50: > 10 µM
[4]
  AC50: > 30 µM
[5]
  AC50: > 10 µM
[6]
  AC50: > 10 µM
[7]
  AC50: > 10 µM
[8]
  AC50: > 10 µM
[9]
  AC50: > 30 µM
[10]
  AC50: > 30 µM
[11]
  AC50: > 10 µM
[12]
  AC50: > 30 µM
[13]
  AC50: > 10 µM

## CCCCCOc1ccc(-c2cc(-c3ccc(C(=O)N[C@H]4C[C@@H](O)[C@@H](O)NC(=O)[C@@H]5[C@@H](O)[C@@H](C)CN5C(=O)[C@H]([C@H](O)CC(N)=O)NC(=O)[C@H]([C@H](O)[C@@H](O)c5ccc(O)c(OS(=O)(=O)O)c5)NC(=O)[C@@H]5C[C@@H](O)CN5C(=O)[C@H]([C@@H](C)O)NC4=O)cc3)no2)cc1 [MICAFUNGIN] (X1-[Orn(4R-OH,5R-OH)]T[Hyp][hTyr(3S-OH,4S-OH,3'-OSO3H)][Gln(3R-OH)][Pro(3S-OH,4S-Me)]; lactam 1-C)
[4]
  AC50: > 30 µM
[10]
  AC50: > 30 µM

## CCOc1ccc2ccccc2c1C(=O)N[C@@H]1C(=O)N2[C@@H]1SC(C)(C)[C@@H]2C(=O)O [NAFCILLIN]
[4]
  AC50: > 30 µM
[10]
  AC50: > 30 µM

## CCCCCCCCCCC[C@@H](C[C@@H]1OC(=O)[C@H]1CCCCCC)OC(=O)[C@H](CC(C)C)NC=O [ORLISTAT]
[4]
  AC50: > 30 µM
[10]
  AC50: > 30 µM

## O=C1[C@H]2CCCC[C@H]2C(=O)N1CCCCN1CCN(c2nsc3ccccc23)CC1 [PEROSPIRONE]
[4]
  AC50: 0.003 µM
[10]
  AC50: 3.73 µM

## CN(C)CCC(c1ccccc1)c1ccccn1 (configuration not stated) [PHENIRAMINE]
[4]
  AC50: > 30 µM
[10]
  AC50: 7.98 µM

## CC(C)COc1ccc(CNC(=O)N(Cc2ccc(F)cc2)C2CCN(C)CC2)cc1 [PIMAVANSERIN]
[4]
  AC50: 11.4 µM
[10]
  AC50: > 30 µM

## CC(C)(C)C(=O)NCCCC(=O)O [PIVAGABINE]
[4]
  AC50: > 30 µM
[10]
  AC50: > 30 µM

## CC(C)[N+](C)(CCOC(=O)C1c2ccccc2Oc2ccccc21)C(C)C [PROPANTHELINE]
[4]
  AC50: > 30 µM
[10]
  AC50: > 30 µM

## CN(C)C(=O)c1nc(CNC(=O)CN)n(-c2ccc(Cl)cc2C(=O)c2ccccc2Cl)n1 [RILMAZAFONE]
[4]
  AC50: > 30 µM
[10]
  AC50: > 30 µM

## NC(=O)NS(=O)(=O)c1ccc(N)cc1 [SULFACARBAMIDE]
[4]
  AC50: > 30 µM
[10]
  AC50: > 30 µM

## CC1(C)O[C@@H]2[C@@H](CO[C@@]3(COS(N)(=O)=O)OC(C)(C)O[C@@H]23)O1 [TOPIRAMATE]
[1]
  AC50: > 10 µM
[2]
  AC50: > 30 µM
[3]
  AC50: > 10 µM
[4]
  AC50: > 30 µM
[14]
  AC50: > 30 µM
[5]
  AC50: > 10 µM
[6]
  AC50: > 10 µM
[15]
  AC50: > 30 µM
[7]
  AC50: > 10 µM
[8]
  AC50: > 10 µM
[9]
  AC50: > 30 µM
[10]
  AC50: > 30 µM
[11]
  AC50: > 10 µM
[12]
  AC50: > 30 µM
[13]
  AC50: > 10 µM

## NCCc1ccc(O)cc1 [TYRAMINE]
[4]
  AC50: > 30 µM
[10]
  AC50: > 30 µM

## CCCCCCCCCCCCCCCC(=O)OC/C=C(C)/C=C/C=C(C)/C=C/C1=C(C)CCCC1(C)C [VITAMIN A PALMITATE]
[4]
  AC50: > 30 µM
[10]
  AC50: > 30 µM
